Source: PubChem BioAssay AID248 (DTP/NCI, 2004)
“And” between values parts separate entries of the source, which are not always exact repeats. Equal values may be shown once. Toxic doses and inconclusive results are not listed. Cut-off read from the data, not from the text of the source: active = T/C of 150% or more; inactive = T/C below 125%. Square brackets hold non-standard residues; d marks the D form. Peptide text beside a SMILES is read from it. * marks the point of attachment. ξ: configuration not given here. Hexanoyl = CCCCCC(=O)*; ξP = O=C(O)C1CCCN1

Test system: L1210 leukemia ip in BDF1 mice, survival T/C
Assay: NCI In Vivo Anticancer Drug Screen. Data for tumor model L1210 Leukemia (intraperitoneal) in B6D2F1 (BDF1) mice
Conditions: endpoint: mean survival time, higher = longer survival
Summary of the method: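 Transplanted-tumor mice were given test agent; controls received vehicle only. Survival readings from the two groups were divided (treated over control).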

[1] = dose: 100.0 mg/kg/injection, schedule: Q04DX003 (ip), vehicle: saline with Tween-80
[2] = dose: 200.0 mg/kg/injection, schedule: Q04DX003 (ip), vehicle: saline with Tween-80
[3] = dose: 400.0 mg/kg/injection, schedule: Q04DX003 (ip), vehicle: saline with Tween-80
[4] = dose: 100.0 mg/kg/injection, schedule: Q04DX002 (ip), vehicle: Klucel (hydroxypropylcellulose) (HPC)
[5] = dose: 200.0 mg/kg/injection, schedule: Q04DX002 (ip), vehicle: Klucel (hydroxypropylcellulose) (HPC)
[6] = dose: 400.0 mg/kg/injection, schedule: Q04DX002 (ip), vehicle: Klucel (hydroxypropylcellulose) (HPC)
[7] = dose: 100.0 mg/kg/injection, schedule: Q01DX009 (ip), vehicle: saline with Tween-80
[8] = dose: 200.0 mg/kg/injection, schedule: Q01DX009 (ip), vehicle: saline with Tween-80
[9] = dose: 50.0 mg/kg/injection, schedule: Q01DX009 (ip), vehicle: Klucel (hydroxypropylcellulose) (HPC)
[10] = dose: 100.0 mg/kg/injection, schedule: Q01DX009 (ip), vehicle: Klucel (hydroxypropylcellulose) (HPC)
[11] = dose: 200.0 mg/kg/injection, schedule: Q01DX009 (ip), vehicle: Klucel (hydroxypropylcellulose) (HPC)

Measured: T/C

COc1ccc(C2CCCCC2OS(C)(=O)=O)cc1 (configuration not stated)
inactive: dose: 100.0 mg/kg/injection, schedule: Q01DX001 (ip), vehicle: carboxymethylcellulose (CMC) 97 % of control | dose: 200.0 mg/kg/injection, schedule: Q01DX001 (ip), vehicle: carboxymethylcellulose (CMC) 106 % of control | dose: 400.0 mg/kg/injection, schedule: Q01DX001 (ip), vehicle: carboxymethylcellulose (CMC) 95 % of control

CC(=O)OCc1ccc2ccccc2c1
inactive: [1] 101 % of control | [2] 106 % of control | [3] 101 % of control

CN(N=O)C(=O)NC1C(CO)OC2OC(C)(C)OC21 (configuration not stated)
inactive: dose: 100.0 mg/kg/injection, schedule: Q01DX009 (ip), vehicle: saline sonified 124 % of control | dose: 400.0 mg/kg/injection, schedule: Q01DX009 (ip), vehicle: saline sonified 119 % of control

O=C1CCCC2=C1C(c1ccncc1)Nc1ccccc1N2 (configuration not stated)
inactive: [4] 103 % of control | [5] 117 % of control | [6] 109 % of control

CCCCCCCCCCCCCCCCOc1ccc(OC)cc1
inactive: dose: 100.0 mg/kg/injection, schedule: Q04DX003 (ip), vehicle: Klucel (hydroxypropylcellulose) (HPC) 102 % of control | dose: 200.0 mg/kg/injection, schedule: Q04DX003 (ip), vehicle: Klucel (hydroxypropylcellulose) (HPC) 92 % of control | dose: 400.0 mg/kg/injection, schedule: Q04DX003 (ip), vehicle: Klucel (hydroxypropylcellulose) (HPC) 92 % of control

CCCCN=C(NCCCC)c1ccc(NC(=O)c2ccc(C(=O)Nc3ccc(C(=NCCCC)NCCCC)cc3)cc2)cc1
inactive: dose: 0.12 mg/kg/injection, schedule: Q01DX015 (ip), vehicle: methylcellulose (MC) 94 % of control | dose: 0.25 mg/kg/injection, schedule: Q01DX015 (ip), vehicle: methylcellulose (MC) 94 % of control | dose: 0.5 mg/kg/injection, schedule: Q01DX015 (ip), vehicle: methylcellulose (MC) 90 % of control | dose: 1.0 mg/kg/injection, schedule: Q01DX015 (ip), vehicle: methylcellulose (MC) 102 % of control | dose: 2.0 mg/kg/injection, schedule: Q01DX015 (ip), vehicle: methylcellulose (MC) 108 % of control | dose: 4.0 mg/kg/injection, schedule: Q01DX015 (ip), vehicle: methylcellulose (MC) 110 % of control | dose: 8.0 mg/kg/injection, schedule: Q01DX015 (ip), vehicle: methylcellulose (MC) 98 % of control

O=C(O)CCN1C/C(=C\c2ccc(Cl)cc2)C(=O)C1=O
inactive: dose: 100.0 mg/kg/injection, schedule: Q04DX003 (ip), vehicle: saline 101 % of control | dose: 200.0 mg/kg/injection, schedule: Q04DX003 (ip), vehicle: saline 101 % of control | dose: 400.0 mg/kg/injection, schedule: Q04DX003 (ip), vehicle: saline 101 % of control

Cc1c2cnccc2c(C)c2c1c1ccccc1n2CCCN1C(=O)c2ccccc2C1=O
inactive: dose: 50.0 mg/kg/injection, schedule: Q04DX003 (ip), vehicle: saline with Tween-80 100 % of control | [7] 104 % of control | [1] 97 % of control | dose: 150.0 mg/kg/injection, schedule: Q01DX001 (oral), vehicle: saline with Tween-80 105 % of control | [8] 102 % of control and 107 % of control | [2] 101 % of control | dose: 300.0 mg/kg/injection, schedule: Q01DX001 (oral), vehicle: saline with Tween-80 112 % of control | dose: 400.0 mg/kg/injection, schedule: Q01DX009 (ip), vehicle: saline with Tween-80 111 % of control and 120 % of control | [3] 117 % of control | dose: 600.0 mg/kg/injection, schedule: Q01DX001 (oral), vehicle: saline with Tween-80 112 % of control | dose: 600.0 mg/kg/injection, schedule: Q01DX009 (ip), vehicle: saline with Tween-80 121 % of control | dose: 1200.0 mg/kg/injection, schedule: Q01DX001 (oral), vehicle: saline with Tween-80 121 % of control

C=CC1(O)CC2CCC1C2 (configuration not stated)
inactive: [7] 101 % of control | [8] 96 % of control

O=C(/C=C(\C(=O)c1ccccc1)c1ccccc1)c1ccc(Cl)cc1
inactive: [9] 103 % of control | dose: 75.0 mg/kg/injection, schedule: Q01DX001 (ip), vehicle: Klucel (hydroxypropylcellulose) (HPC) 100 % of control | [10] 92 % of control | dose: 150.0 mg/kg/injection, schedule: Q01DX001 (ip), vehicle: Klucel (hydroxypropylcellulose) (HPC) 95 % of control | [11] 94 % of control | dose: 300.0 mg/kg/injection, schedule: Q01DX001 (ip), vehicle: Klucel (hydroxypropylcellulose) (HPC) 108 % of control

O=C1c2cccc([N+](=O)[O-])c2C(=O)c2c1cccc2[N+](=O)[O-]
inactive: dose: 100.0 mg/kg/injection, schedule: Q04DX002 (ip), vehicle: saline with Tween-80 93 % of control | dose: 200.0 mg/kg/injection, schedule: Q04DX002 (ip), vehicle: saline with Tween-80 104 % of control | dose: 400.0 mg/kg/injection, schedule: Q04DX002 (ip), vehicle: saline with Tween-80 100 % of control

O=C(Nc1cc(S(=O)(=O)F)ccc1Cl)Oc1ccc([N+](=O)[O-])cc1
inactive: [1] 102 % of control | [2] 97 % of control | [3] 100 % of control

CCCCCC(=O)NCC(=O)N1CCCC1C(=O)O (configuration not stated) (Hexanoyl-Gly-[ξP]-OH)
inactive: dose: 100.0 mg/kg/injection, schedule: Q01DX001 (ip), vehicle: saline 95 % of control | dose: 200.0 mg/kg/injection, schedule: Q01DX001 (ip), vehicle: saline 107 % of control | dose: 400.0 mg/kg/injection, schedule: Q01DX001 (ip), vehicle: saline 98 % of control

NC(=O)C=C1c2ccccc2-c2ccccc21
inactive: dose: 25.0 mg/kg/injection, schedule: Q01DX009 (ip), vehicle: Klucel (hydroxypropylcellulose) (HPC) 97 % of control | [9] 94 % of control | [10] 96 % of control | [11] 91 % of control | dose: 400.0 mg/kg/injection, schedule: Q01DX009 (ip), vehicle: Klucel (hydroxypropylcellulose) (HPC) 89 % of control

O=c1[nH]c2ccccc2c2ccccc12
inactive: [1] 92 % of control | [2] 97 % of control | [3] 95 % of control

COc1cc(N(CCCl)CCCl)ccc1C=Nc1ccc(-n2ccnc2)cc1
inactive: dose: 68.8 mg/kg/injection, schedule: Q04DX002 (ip), vehicle: Klucel (hydroxypropylcellulose) (HPC) 98 % of control | dose: 137.5 mg/kg/injection, schedule: Q04DX002 (ip), vehicle: Klucel (hydroxypropylcellulose) (HPC) 98 % of control | dose: 275.0 mg/kg/injection, schedule: Q04DX002 (ip), vehicle: Klucel (hydroxypropylcellulose) (HPC) 102 % of control

c1ccc(-c2nn(-c3ccccc3)[n+](-c3cccc4ccccc34)n2)cc1
inactive: dose: 1.0 mg/kg/injection, schedule: Q01DX015 (ip), vehicle: carboxymethylcellulose (CMC) 100 % of control | dose: 2.0 mg/kg/injection, schedule: Q01DX015 (ip), vehicle: carboxymethylcellulose (CMC) 102 % of control | dose: 4.0 mg/kg/injection, schedule: Q01DX015 (ip), vehicle: carboxymethylcellulose (CMC) 102 % of control | dose: 8.0 mg/kg/injection, schedule: Q01DX015 (ip), vehicle: carboxymethylcellulose (CMC) 105 % of control

O=C1C(SCCO)=C(SCCO)C(=O)c2[nH]cnc21
inactive: dose: 5.0 mg/kg/injection, schedule: Q01DX001 (ip), vehicle: carboxymethylcellulose (CMC) 100 % of control | dose: 10.0 mg/kg/injection, schedule: Q01DX001 (ip), vehicle: carboxymethylcellulose (CMC) 101 % of control | dose: 20.0 mg/kg/injection, schedule: Q01DX001 (ip), vehicle: carboxymethylcellulose (CMC) 100 % of control | dose: 40.0 mg/kg/injection, schedule: Q01DX001 (ip), vehicle: carboxymethylcellulose (CMC) 104 % of control

O=C(O)COc1cc(F)ccc1[N+](=O)[O-]
inactive: [4] 91 % of control | [5] 102 % of control | [6] 107 % of control

COc1ccccc1OCCN1Cc2ccccc2C1
inactive: [1] 96 % of control | [2] 92 % of control
